Like-named read-outs stand apart in the source and are kept apart here.
Key:
[1] = test system: green peach aphid (Myzus persicae); experiment: Myzus test (spray treatment); assay type: in vivo; conditions: foliar, 144 h, read-out: activity (effect in %, aphids killed)
Protocol: Solvents: 78 parts by weight of acetone
• 1.5 parts by weight of dimethylformamide Emulsifier 0.5 part by weight of alkylaryl polyglycol ether
To produce a suitable preparation of active compound, 1 part by weight of active compound is mixed with the stated amounts of solvents and emulsifier, and the concentrate is diluted with emulsifier-containing water to the desired concentration. Discs of leaves of Chinese cabbage (Brassica pekinensis) which are infested by all stages of the green peach aphid (Myzus persicae) are sprayed with an active compound preparation of the desired concentration.
After 6 days, the effect in % is determined. 100% means that all aphids have been killed; 0% means that none of the aphids has been killed.

[2] = logP determination (neutral / HCOOH); conditions: for chromatographic logP: HCOOH (formic acid)
[3] = application rate 500 g/ha, after 6 days, Chinese cabbage leaf discs

Row | SMILES | pest or weed control at 500 g/ha [1, 3] [%] | chromatographic logP ([2]; logP (HCOOH), HCOOH) | also measured
1 | c1cncc(-n2cc(-c3cccc(C4OCC5(CCC5)O4)n3)cn2)c1 (stereo not shown) [Example 90] | 100 | 2.37 | logP ([2]; logP (neutral), neutral): 2.53
2 | O=C(NCC(F)(F)F)c1cccc(-c2cnn(-c3cccnc3)c2)n1 [Example 57] | 100 | 2.12 | 
3 | COc1ccnc(-n2ccc(-c3cnn(-c4cccnc4)c3)n2)n1 [Example 28] | 100 | 1.71 | 
4 | c1ccc(-c2csc(-c3cnn(-c4cccnc4)c3)n2)nc1 [Example 47] | 100 | 1.55 | 
5 | O=Cc1cccc(-c2cnn(-c3cccnc3)c2)n1 [Example 110] | 80 | 1.56 | 
6 | O=C(NCC(F)(F)F)c1cnc(-c2cnn(-c3cccnc3)c2)cc1C(F)(F)F [Example 109] | 90 | 2.11 | logP ([2]; logP (neutral), neutral): 2.18
7 | COCC(=O)c1cccc(Br)n1 [1-(6-Bromopyridin-2-yl)-2-methoxyethanone] |  |  | logP ([2]; logP (neutral), neutral): 1.73
8 | COC(=N)c1cccc(-c2cnn(-c3cccnc3)c2)n1 [Example 91] | 100 | 0.84 | 
9 | Fc1cccc(-c2cnn(-c3cccnc3)c2)n1 [Example 105] | 80 | 1.77 | 
10 | CC1(C)COC(c2cccc(-c3cnn(-c4cccnc4)c3)n2)OC1 [Example 104] |  | 2.44 | logP ([2]; logP (neutral), neutral): 2.55
11 | Fc1cncc(-n2cc(-c3cccc(C(F)(F)F)n3)cn2)c1 [Example 59] | 100 | 3.1 | logP ([2]; logP (neutral), neutral): 3.14
12 | c1cnc(-c2nccc(-c3cnn(-c4cccnc4)c3)n2)nc1 [Example 46] | 100 | 0.86 | 
13 | O=C(NCC(F)(F)F)c1ccc(-c2cnn(-c3cccnc3)c2)nc1 [Example 87] | 90 | 1.53 | logP ([2]; logP (neutral), neutral): 1.69
14 | FC(F)(F)COc1cccc(-c2cnn(-c3cccnc3)c2)n1 [Example 25] |  | 2.96 | pest or weed control at 100 g/ha ([1]; application rate 100 g/ha, after 6 days, Chinese cabbage leaf discs): 80%
15 | CC1OC(c2cccc(-c3cnn(-c4cccnc4)c3)n2)OC1C (stereo not shown) [Example 72] | 100 | 2.13 | logP (HCOOH) ([2]; HCOOH): 2.09
16 | c1cnc(-c2ccn(-c3cnn(-c4cccnc4)c3)n2)nc1 [Example 2, 1′-(Pyridin-3-yl)-3-(pyrimidin-2-yl)-1′H-1,4′-bipyrazole] | 100 |  | logP ([2]; HCOOH, logP (HCOOH)): 1.18
17 | FC(F)(F)c1ccnc(-n2ccc(-c3cnn(-c4cccnc4)c3)n2)n1 [Example 8, 1′-(Pyridin-3-yl)-1-[4-(trifluoromethyl)pyrimidin-2-yl]-1H,1′H-3,4′-bipyrazole] | 90 | 2.15 | 
18 | N#CCNC(=O)c1ccc(-c2cnn(-c3cccnc3)c2)nc1 [Example 97] | 90 | 0.95 | logP ([2]; logP (neutral), neutral): 1.2
19 | c1cnc(-n2ccc(-c3cnn(-c4cccnc4)c3)n2)nc1 [Example 33] | 100 | 1.33 | 
20 | c1cncc(-n2cc(-c3ccncc3)cn2)c1 [Example 101] | 100 | 0.01 | logP ([2]; logP (neutral), neutral): 1.24
21 | O=C(c1cccc(-c2cnn(-c3cccnc3)c2)n1)N1CCOCC1 [Example 18] | 100 | 1.23 | 

Row | SMILES | pest or weed control at 500 g/ha [1, 3] [%] | chromatographic logP ([2]; logP (HCOOH), HCOOH) | also measured
22 | O=C(Nc1cccc(-c2cnn(-c3cccnc3)c2)n1)C(F)(F)F [Example 103] | 90 | 2.21 | logP ([2]; logP (neutral), neutral): 2.28
23 | FC(F)(F)c1nc(-c2cccc(-c3cnn(-c4cccnc4)c3)n2)no1 [Example 74] | 100 | 2.77 | 
24 | N#Cc1cccc(-c2cnn(-c3cncc(F)c3)c2)n1 [Example 108] | 90 | 2.2 | 
25 | Clc1cccc(-c2cnn(-c3cccnc3)c2)n1 [Example 20] |  | 2.05 | 
26 | COCC1(c2cccc(-c3cnn(-c4cccnc4)c3)n2)OCCCO1 [Example 49] | 100 |  | logP ([2]; logP (neutral), neutral): 1.69
27 | FC(F)(F)c1ccc(-c2cnn(-c3cccnc3)c2)cc1 [Example 50] | 90 | 2.98 | 
28 | c1cc(-c2cnn(-c3cncnc3)c2)nc(C2OCCCO2)c1 [Example 68] | 100 | 1.51 | logP ([2]; logP (neutral), neutral): 1.56
29 | c1cncc(-n2cc(-c3cccc(-c4nc[nH]n4)n3)cn2)c1 [Example 64] | 100 | 1.14 | 
30 | O=C1CCCCN1c1cccc(-c2cnn(-c3cccnc3)c2)n1 [Example 81] |  | 1.59 | 
31 | O=c1ccccn1-c1cccc(-c2cnn(-c3cccnc3)c2)n1 [Example 89] | 100 | 1.37 | 
32 | NC(=S)c1cccc(-c2cnn(-c3cccnc3)c2)n1 [6-(1-Pyridin-3-yl-1H-pyrazol-4-yl)pyridine-2-carbothioamide] |  |  | logP ([2]; logP (neutral), neutral): 1.77
33 | c1cncc(-n2cc(-c3cccc(C4=NCCO4)n3)cn2)c1 [Example 84] | 100 | 0.9 | logP ([2]; logP (neutral), neutral): 1.45
34 | N=C(NO)c1cccc(-c2cnn(-c3cccnc3)c2)n1 [Example 114] |  | 0.86 | 
35 | CC(F)(F)c1cccc(-c2cnn(-c3cccnc3)c2)n1 [Example 29] | 90 | 2.46 | 
36 | c1cncc(-n2cc(-c3cccc(C4OCCO4)n3)cn2)c1 [Example 36] | 100 | 1.5 | 
37 | c1cncc(-n2cc(-c3cccc(-n4cccn4)n3)cn2)c1 [Example 19] | 100 | 2.21 | 
38 | C=C1COC(c2cccc(-c3cnn(-c4cccnc4)c3)n2)OC1 [Example 75] | 100 | 1.9 | 
39 | Cc1cnn(-c2cccc(-c3cnn(-c4cccnc4)c3)n2)c1 [Example 79] | 100 | 2.59 | 
40 | c1cnc(-c2ccnn2-c2cnn(-c3cccnc3)c2)nc1 [Example 93] | 100 | 1.16 | 
41 | Fc1cnc(-n2ccc(-c3cnn(-c4cccnc4)c3)n2)nc1 [Example 31] | 100 | 1.52 | 
42 | CN(C)C(=O)c1cccc(-c2cnn(-c3cccnc3)c2)n1 [Example 17] | 100 | 1.24 | 

Row | SMILES | pest or weed control at 500 g/ha [1, 3] [%] | chromatographic logP ([2]; logP (HCOOH), HCOOH) | also measured
43 | CC1(c2cccc(-c3cnn(-c4cccnc4)c3)n2)OCCO1 [Example 10, 2-(2-Methyl-1,3-dioxolan-2-yl)-6-(1-pyridin-3-yl-1H-pyrazol-4-yl)pyridine] |  |  | pest or weed control at 500 g/ha ([1]; in Brassica rapa): 100%; logP ([2]; logP (neutral), neutral): 1.89
44 | CC(=O)Nc1cccc(-c2cnn(-c3cccnc3)c2)n1 [Example 94] | 100 | 1.31 | 
45 | FC(F)(F)c1cccc(-n2ccc(-c3cnn(-c4cccnc4)c3)n2)n1 [Example 41] |  | 3.18 | 
46 | FC(F)(F)c1cccc(-c2cnn(-c3cccnc3)c2)c1 [Example 52] |  | 2.99 | 
47 | c1cncc(-n2cc(-c3ccncn3)cn2)c1 [Example 113] |  | 0.89 | 
48 | COC(OC)c1cccc(-c2cnn(-c3cccnc3)c2)n1 [Example 45] | 100 | 1.75 | 
49 | COCC(F)(F)c1cccc(-c2cnn(-c3cccnc3)c2)n1 [Example 11, 2-(1,1-Difluoro-2-methoxyethyl)-6-(1-pyridin-3-yl-1H-pyrazol-4-yl)pyridine] | 100 |  | logP ([2]; logP (neutral), neutral): 2.3
50 | c1ccc(-c2cnn(-c3cccnc3)c2)nc1 [Example 12] | 100 | 0.81 | 
51 | N=C(N)c1cccc(-c2cnn(-c3cccnc3)c2)n1 [6-(1-Pyridin-3-yl-1H-pyrazol-4-yl)pyridine-2-carboxamidine] |  |  | logP ([2]; logP (neutral), neutral): 1.99
52 | CC1(C)OB(c2cnn(-c3cncc(F)c3)c2)OC1(C)C [VI-2] |  | 2.88 | 
53 | CC(=O)c1cnn(-c2cccnc2)c1 [1-[1-(Pyridin-3-yl)-1H-pyrazol-4-yl]ethanone] |  | 0.76 | 
54 | Brc1cccc(-c2ncccn2)n1 [2-(6-Bromopyridin-2-yl)pyrimidine] |  | 1.3 | 
55 | N=C(NO)c1cccc(-c2cnn(-c3cccnc3)c2)n1 [N-Hydroxy-6-(1-pyridin-3-yl-1H-pyrazol-4-ylpyridine-2-carboxamidine] |  |  | logP ([2]; logP (neutral), neutral): 1.23
56 | O=C1CCCN1c1cccc(-c2cnn(-c3cccnc3)c2)n1 [Example 80] |  | 1.86 | 
57 | CN(C)/C=C/C(=O)c1cnn(-c2cccnc2)c1 [(2E)-3-(Dimethylamino)-1-[1-(pyridin-3-yl)-1H-pyrazol-4-yl]prop-2-en-1-one] |  |  | logP ([2]; HCOOH, logP (HCOOH)): 0.93
58 | Brc1cncc(-n2cc(-c3cccc(-c4ncccn4)n3)cn2)c1 [Example 111] |  | 2.17 | 
59 | CON(C)C(=O)c1cnn(-c2cccnc2)c1 [N-Methoxy-N-methyl-1-(pyridin-3-yl)-1H-pyrazole-4-carboxamide] |  |  | logP ([2]; HCOOH, logP (HCOOH)): 0.91
60 | COc1ccc(-c2cnn(-c3cccnc3)c2)cc1 [Example 53] |  | 2.12 | 
61 | CC1(C)OB(c2cnn(-c3cncnc3)c2)OC1(C)C [VI-3] |  | 2.1 | 
62 | c1cnc(-c2cc[nH]n2)nc1 [2-(1H-Pyrazol-3-yl)pyrimidine] |  | 0.1 | 
63 | CC(=O)c1cccc(-c2cnn(-c3cccnc3)c2)n1 [1-[6-(1-Pyridin-3-yl-1H-pyrazol-4-yl)pyridin-2-yl]ethanone] |  |  | logP ([2]; logP (neutral), neutral): 1.94

Reference: patent US9066518B2, “Heterocyclic compounds as pesticides” (Bayer CropScience AG, priority 2009, dated 2015)
